Series [1] deals with Transthyretin (Homo sapiens), P02766 [V50M]. As to the kind of experiment: Stabilization of TTR V30M mutant tetramer in human plasma assessed as tetramer to total protein ratio preincubated overnight at 4 degC followed by further incubation at room temperature for 1 hr in presence of 4M urea by isoelectric focusing densitometric analysis.
Series [2] concerns the target T1, Transthyretin (Homo sapiens, UniProt P02766). The experiment in a line: Displacement of [125I]-T4 from wild type TTR in human plasma after 1 hr by PAGE analysis. In kind it is cell-free.
Series [3] addresses T1, Transthyretin. As to the kind of experiment: Stabilization of wild type TTR tetramer in human plasma assessed as tetramer to total protein ratio preincubated overnight at 4 degC followed by further incubation at room temperature for 1 hr in presence of 4M urea by isoelectric focusing densitometric analysis.
Series [4] can be described thus: Cytotoxicity against human HepG2 cells assessed as decrease in cell viability after 72 hrs by resazurin reduction assay. The note with it: read-out: ID50. In kind it is toxicity, cell-based.
Series [5] concerns the target T1, Transthyretin. The experiment in a line: Binding affinity to recombinant human wild type TTR expressed in Escherichia coli BL21 (DE3) assessed as dissociation constants for second binding site of TTR by isothermal titration calorimetric method.
Series [6] has as its target T1, Transthyretin. The experiment in a line: Stabilization of recombinant human wild type TTR expressed in Escherichia coli BL21 (DE3) assessed as inhibition of amyloid beta formation by measuring turbidity preincubated for 30 mins followed by lowering pH from 7.2 to 4.4 measured after 72 hrs by microplate spectrophotometric method.
The target in series [7] is T1, Transthyretin. As to the kind of experiment: Binding affinity to recombinant human wild type TTR expressed in Escherichia coli BL21 (DE3) assessed as dissociation constants for first binding site of TTR by isothermal titration calorimetric method.
Series [8] concerns the target T1, Transthyretin. As to the kind of experiment: Stabilization of recombinant human wild type TTR expressed in Escherichia coli BL21 (DE3) assessed as inhibition of amyloid beta formation by measuring turbidity at 0.5 to 2 times molar concentration preincubated for 30 mins followed by lowering pH from 7.2 to 4.4 measured after 72 hrs by microplate spectrophotometric method.

Calls of active or inactive are those of the source. The calls are words filed in the database; no cut-off is given here.

`O=C(O)c1cc(-c2ccc(F)cc2F)cc(I)c1O`: the values for the Ratio (in series [1]; at Transthyretin [3]) were 0.445 and 0.768, respectively. Besides, on Transthyretin [2], the inhibition entry was “Active”.
As to `Cc1oc(/C=C/c2ccc(Cl)o2)cc1C(=O)O`, the CC50 at 72 h in series [4] was determined as 225 µM. The Kd on Transthyretin [5] is 0.278 µM; on Transthyretin [7], 0.0039 µM. For the same compound, the IC50 on Transthyretin [6] stood at 2.49 µM.
For the compound `N[C@@H](Cc1cc(I)c(Oc2cc(I)c(O)c(I)c2)c(I)c1)C(=O)O`, the inhibition result at Transthyretin [8] is “Active”.
Turning to `Cc1c(C(=O)O)coc1/C=C/c1ccc(Cl)o1`, the Ratio in series [1] is 0.481; at Transthyretin [3], 0.961. In addition, the inhibition result at Transthyretin [2] was “Active”. Also, the CC50 at 72 h in series [4] stood at 181 µM.
For the compound `Oc1c(Cl)cc(-c2cc(Cl)c(O)c(Cl)c2)cc1Cl`, the CC50 at 72 h in series [4] was found to be 60 µM.
Take `O=C(O)c1ccc2nc(-c3cc(Cl)cc(Cl)c3)oc2c1`: at Transthyretin [2], the inhibition entry was “Active”. Also, the CC50 at 72 h in series [4] came to 247 µM.

Source of the values: ChEMBL document CHEMBL3861954, “A novel bis-furan scaffold for transthyretin stabilization and amyloid inhibition” (Eur J Med Chem, 2016).
